Results on two compounds are retold here after patent US12678384B2, “Sanitizing compositions containing ionic liquid” (CAGE BIO INC., priority 2020, dated 2026).

Read-outs that look alike come from different tables or passages of the source.

Series [1] concerns human Coronavirus strain 229E (hCoV229E) (ATCC #VR-740). The following applies: for TCID10 (log10): 5% w/w in purified water, virus control 6.50; for CPE (cytopathic/cytotoxic effect), four replicate wells: 5% w/w.
For series [2] the following is noted: in vivo. The method, then:
Distilled water was used as a negative control. The patches were removed by the subjects after 24 h and a new one was applied by the site staff at the same exact site at the next visit. The subjects reported to the site for a total of 9 visits, 3 each week. During each visit the application area was observed by the study investigator and a new patch was applied.
This cosmetic study was approved by an IRB and conducted by AMA Laboratories Inc. in New York. […] The application area was occluded with hypoallergenic tape. The subjects were required to keep the tape for 24 h. At each visit, the application site was evaluated for skin irritation on a 5-point scale (0-4). […] The subjects were then evaluated for any skin reactions after 24 and 48 h.

For series [3], the system named is E. coli. The experiment in a line: In vivo study of residual antimicrobial efficacy on finger taps (Example 7). To be noted: finger taps inoculated with E. coli 30 min (controls) or 30 min, 1 hr, 2 hrs (test article) post application. The method, then: • 1) Wash hands with nonmedicated soap to remove surface dirt and oil, dried, and finally decontaminate with 70% isopropyl alcohol. Allow to air dry. • 2) Apply test article (Sanitizer A containing 5% CAGE) and controls (70% Alcohol and DI Water or 0.9% Sterile Saline Solution) on each finger tap to cover it completely. Let it dry. • 3) Inoculate the finger taps #1-3 with 10 μL of high-concentrated suspension of E. coli at 30 min of post-application. • 4) Wait for 60 sec (contact time) • 5) Tap the finger on the TSA agar plate and transfer plates #1-3 into the incubator set at 37° C. • 6) Apply 10 μL of inoculum on Finger #4 at 1 hr. of post application. • 7) Wait for 60 sec and tap the finger on the TSA agar plate. Transfer plate into the incubator set at 37° C. • 8) Apply 10 μL of inoculum on Finger #5 at 2 hrs of post application. • 9) Wait for 60 sec and tap the finger on the TSA agar plate. Transfer plate into the incubator set at 37° C. • 10) Observe bacterial growth after 24 hrs in incubator.

As to choline geranate [CG-101], the “TCID10 (log10)” value in series [1] (5 minutes exposure) and in series [1] (10 minutes exposure) was not above 2.50 log10 throughout. Moreover, the “CPE (cytopathic/cytotoxic effect), four replicate wells” value is 0000 in series [1] (5 minutes exposure, dilution (−Log10) −3); 0000 in series [1] (5 minutes exposure, dilution (−Log10) −4); 0000 in series [1] (5 minutes exposure, dilution (−Log10) −5); 0000 in series [1] (5 minutes exposure, dilution (−Log10) −6); 0000 in series [1] (5 minutes exposure, dilution (−Log10) −7); 0000 in series [1] (10 minutes exposure, dilution (−Log10) −3). Further, the “CPE (cytopathic/cytotoxic effect), four replicate wells” value in series [1] (10 minutes exposure, dilution (−Log10) −4) is 0000; in series [1] (10 minutes exposure, dilution (−Log10) −5), 0000; in series [1] (10 minutes exposure, dilution (−Log10) −6) it was 0000; in series [1] (10 minutes exposure, dilution (−Log10) −7), 0000. In addition, the “other adverse events reported in the study” value in series [2] is given as “no other adverse events”. In series [2], the sensitization response entry is “did not create any sensitization response”. Further, the “subjects showing any skin reactions in the first 3 visits (7-days)” value in series [2] was “None”. For the same compound, the “subjects that did not display any irritation throughout the entire 21-day study” value in series [2] came to 43 subjects. For the same compound, the “subjects that experienced some skin irritation” value in series [2] is given as 8 subjects.

For `CCO` [70% Ethanol, Ethanol], the “microbial growth after 24 hrs at 37° C.” value in series [3] is on record as “Microbial growth was observed”.
